Laboratory results: patent US20250268248A1 (priority 2022, published 2025)

Key:
S. aureus [1] = test: MBC determination; assay type: cell-based, S. aureus (ATCC 25923); details: Staphylococcus aureus; Table 5
Source text: (§1) • Menthol, Guangdong Huaqingyuan Biotechnology Co., Ltd. • Thymol, Guangdong Huaqingyuan Biotechnology Co., Ltd. • Bromoisobutyryl bromide (BiBB), Aldrich • CuBr, Aldrich • N,N,N′,N″,N″-pentamethyldiethylenetriamine (PMDETA), Aldrich • 2-(N,N-dimethylamino)ethyl methacrylate (DMAEMA), Aldrich • Gram-positive 2 bacteria (S. aureus, ATCC 25923), China Center of Industrial Culture, commercially available from Guangdong Huankai Microbial Sci.&Tech. Co., Ltd., Guangdong, China • methicillin-resistant Staphylococcus aureus (ATCC 43300), China Center of Industrial Culture, commercially available from Guangdong Huankai Microbial Sci.&Tech. Co., Ltd., Guangdong, China • Gram-negative bacteria (E. coli, ATCC 43894), China Center of Industrial Culture, commercially available from Guangdong Huankai Microbial Sci.&Tech. Co., Ltd., Guangdong, China.
(§2) The MBC was defined as the lowest concentration of an antibacterial agent that kills bacteria in the planktonic culture. MBC of antibacterial polymers and control were determined against S. aureus and E. coli by the reported method in publication “Antibacterial and Bacterially Antiadhesive Cotton Fabrics Coated by Cationic Fluorinated Polymers. ACS Appl Mater Interfaces 2018, 10 (7), 6124-6136.”

MRSA [2] = test: MBC determination; assay type: cell-based, methicillin-resistant Staphylococcus aureus (ATCC 43300); details: Staphylococcus aureus, read-out: MBC MRSA
Source text: as §1, §2

MRSA [3] = test: MIC determination by serial dilution in LB broth; assay type: cell-based, methicillin-resistant Staphylococcus aureus (ATCC 43300); details: Staphylococcus aureus, read-out: MIC MRSA
Source text: as §1
MIC (minimum inhibitory concentration) was used as an effective qualitative method of antibacterial ability assessment. MIC of antibacterial polymers were determined against S. aureus and E. coli by a serial dilution method. Bacteria LB agar plates were prepared from glycerol stock. Bacteria were inoculated with LB broth in an inoculation shaker at 200 rpm and 37° C., overnight. […] MIC was determined with no visible growth at 600 nm by spectrophotometer. […]

S. aureus [4] = test: MIC determination by serial dilution in LB broth; assay type: cell-based, S. aureus (ATCC 25923); details: Staphylococcus aureus, Table 5, 24 h, 37° C.
Source text: as §1
(§3) MIC (minimum inhibitory concentration) was used as an effective qualitative method of antibacterial ability assessment. MIC of antibacterial polymers were determined against S. aureus and E. coli by a serial dilution method. Bacteria LB agar plates were prepared from glycerol stock. Bacteria were inoculated with LB broth in an inoculation shaker at 200 rpm and 37° C., overnight.

E. coli [5] = test: MBC determination; assay type: cell-based, E. coli (ATCC 43894); details: Escherichia coli, read-out: MBC E. coli
Source text: as §1, §2

E. coli [6] = test: microbe, parasite or virus in culture; assay type: cell-based, E. coli (ATCC 43894); details: Escherichia coli, 24 h, read-out: MIC E. coli
Source text: as §1, §3

Cc1ccc(C(C)C)c(O)c1 [Thymol]
250 mg/L: MBC (S. aureus [1]) | MBC (MRSA [2]) | MIC (MRSA [3]) | MIC (S. aureus [4]) | MBC (E. coli [5]) | MIC (E. coli [6])
